≈ marks a conversion by molar mass, not a printed value.

What all share (assay type): in vivo
In assay [1] the test system is bean aphid (Aphis fabae Scop.). The assay can be described thus: Bean Aphid Foliage Spray Test. The conditions noted are these: foliar, 24 hour holding period, read-out: Insect LD50, Aphid. How it is done:
(§1) Suspensions of the test compouns were prepared by dissolving one gram of compound in 50 milliliters of acetone in which had been dissolved 0.1 gram (10 percent of the weight of compound) of an alkylphenoxy polyethoxyethanol surfactant, as an emulsifying or dispersing agent. The resulting solution was mixed into 150 milliliters of water to give roughly 200 milliliters of a suspension containing the compound in finely divided form. The thus-prepared stock suspension contained 0.5 percent by weight of compound. The test concentrations in parts per million by weight employed in the tests described hereinbelow were obtained by appropriate dilutions of the stock suspension with water. The test procedures were as follows:
Bean Aphid Foliage Spray Test
Adults and nymphal stages of the bean aphid (Aphis fabae Scop.) reared on potted dwarf nasturtium plants at 65°-70° F. and 50-70 per cent relative humidity, constituted the test insects. For testing purposes, the number of aphids per pot was standardized to 100-150 by trimming plants containing excess aphids.
The test compounds were formulated by diluting the stock suspension with water to give a suspension containing 500 parts of test compound per million parts of final formulation.
The potted plants (one pot per compound tested) infested with 100-150 aphids, were placed on a revolving turntable and sprayed with 100 -110 milliliters of test compound formulation by use of a DeVilbiss spray gun set at 40 psig. air pressure. This application, which lasted 25 seconds, was sufficient to wet the plants to run-off. As a control, 100-110 milliliters of a water-acetone-emulsifier solution containing no test compound were also sprayed on infested plants. After spraying, the pots were placed on their sides on a sheet of white standard mimeograph paper which had peen previously ruled to facilitate counting. Temperature and humidity in the test room during the 24 hour holding period were 65°-70° F. and 50-70 per cent, respectively. Aphids which fell onto the paper and were unable to remain standing after being uprighted were considered dead. Aphids remaining on the plants were observed closely for movement and those which were unable to move the length of the body upon stimulation by prodding were considered dead. Per cent mortality was recorded for various concentration levels.

Assay [2] relates to two-spotted mite (Tetranychus urticae Koch). Briefly: Mite Foliage Spray Test. The conditions noted are these: foliar, 144 h, 6 days, read-out: Insect LD50, Mite. As to the method:
as §1
Adults and nymphal stage of the two-spotted mite (Tetranychus urticae Koch), reared on Tendergreen bean plants at 80±5 per cent relative humidity, were the test organisms. Infested leaves from a stock culture were placed on the primary leaves of two bean plants 6 to 8 inches in height, growing in a 21/2 inch clay pot. 150-200 Mites, a sufficient number for testing, transferred from the excised leaves to the fresh plants in a period of twenty four hours. Following the twenty four hour transfer period, the excised leaves were removed from the infested plants. The test compounds were formulated by diluting the stock suspension with water to give a suspension containing 500 parts of test compound per million parts of final formulation. The potted plants (one pot per compound) were placed on a revolving turntable and sprayed with 100-110 milliliters of test compound formulation by use of a DeVilbiss spray gun set at 40 psig. air pressure. This application, which lasted 25 seconds, was sufficient to wet the plants to run-off. As a control, 100-110 milliliters of a water solution containing acetone and emulsifier in the same concentrations as the test compound formulation, but containing no test compound, were also sprayed on infested plants. The sprayed plants were held at 80±5 per cent relative humidity for 6 days, after which a mortality count of motile forms was made. Microscopic examination for motile forms was made on the leaves of the test plants. Any individual which was capable of locomotion upon prodding was considered living.

Assay [3] deals with southern armyworm (Spodoptera eridania, (Cram.)). The assay can be described thus: Southern Armyworm Leaf Spray Bait Test. As to the method: as §1
Southern Armyworm Leaf Spray Bait Test
Larvae of the southern armyworm (Spodoptera eridania, (Cram.)), reared on Tendergreen bean plants at a temperature of 80°±5° F. and a relative humidity of 50±5 per cent, constituted the test insects.
The test compounds were formulated by diluting the stock suspension with water to give a suspension containing 500 parts of test compound per million parts of final formulation. Potted Tendergreen bean plants of standard height and age were placed on a revolving turntable and sprayed with 100-110 milliliters of test compound formulation by use of a DeVilbiss spray gun set at 10 psig air pressure. This application, which lasted 25 seconds, was sufficient to wet plants to run-off. As a control, 100-110 milliliters of a water-acetone-emulsifier solution containing no test compound were also sprayed on infested plants. When dry, the paired leaves were separated and each one was placed in a 9 centimeter Petri dish lined with moistened filter paper. Five randomly selected larvae were introduced into each dish and the dishes were closed. The closed dishes were labeled and held at 80°-85° F. for 3 days. Although the larvae could easily consume the whole leaf within 24 hours, no more food was added. Larvae which were unable to move the length of the body, even upon stimulation by prodding, were considered dead. Per cent mortality was recorded for various concentration levels.
(§2) In Table 1 are presented insect and rat toxicity data (bait tests) on a comparative basis of the compounds described above. […] Rat toxicity is also more meaningfully compared on the basis of molar weight LD50 values. The relative efficacy of the parent compounds as compared to the previously known derivatives and as compared to the new compounds of this invention is also shown in Table 1. The ratio of efficacy as contact poisons (immersion/bait) of the compounds tested against Armyworm and House Fly is presented in Table 2 along with the results of the phytotoxicity tests of the compounds on bean, corn, tomato and cotton.

The test system of assay [4] is Mexican bean beetle (Epilachna varivestis, Muls.). Briefly: Mexican Bean Beetle Leaf Spray Test. The conditions noted are these: 72 h, 3 days, read-out: Insect LD50, Beetle. As to the method: as §1
Mexican Bean Beetle Leaf Spray Test
Fourth instar lavae of the Mexican bean beetle (Epilachna varivestis, Muls.), reared on Tendergreen bean plants at a temperature of 80°±5° F. and 50±5 per cent relative humidity, were the test insects.
The test compounds were formulated by diluting the stock suspension with water to give a suspension containing 500 parts of test compound per million parts of final formulation. Potted Tendergreen bean plants of standard height and age were placed on a revolving turntable and sprayed with 100-110 milliliters of test comound formulation by use of a DeVilbiss spray gun set at 10 psig air pressure. This application, which lasted 25 seconds, was sufficient to wet plants to run-off. As a control, 100-110 milliliters of a water-acetone-emulsifier solution containing no test compound were also sprayed on infested plants. When dry, the paired leaves were separated and each was placed in a 9 centimeter Petri dish lined with moistened filter paper. Five randomly selected larvae were introduced into each dish, and the dishes were closed. The closed dishes were labeled and held at a temperature of 80°±5° F, for 3 days. Although the larvae could easily consume the leaf within 24 to 48 hours, no more food was added. Larvae which were unable to move the length of the body, even upon stimulation, were considered dead.

The test system of assay [5] is house flies (Musca domestica, L.). Briefly: Fly Bait Test. The conditions noted are these: Musca domestica, 24 hours, read-out: Insect LD50, Housefly. As to the method: as §1
Four to six day old adult house flies (Musca domestica, L.), reared according to the specifications of the Chemical Specialities Manufacturing Association (Blue Book, McNair-Dorland Co., N.Y. 1954; pages 243-244, 261) under controlled conditions of 80°±5° F. and 50±5 per cent relative humidity, were the test insects. The flies were immobilized by anesthetizing with carbon dioxide and twenty five immobilized individuals, males and females, were transferred to a cage consisting of a standard food strainer about five inches in diameter which was inverted over a wrapping-paper covered surface. The test compounds were formulated by diluting the stock suspension with a 10 per cent (by weight) sugar solution to give a suspension containing 500 parts of test compound per million parts of final formulation, by weight. Ten milliliters of the test formulation were added to a souffle cup containing a 1-inch square of an absorbent cotton pad. This bait cup was introduced and centered on the blotting paper under the food strainer prior to admitting the anesthetized flies. The caged flies were allowed to feed on the bait for 24 hours, at a temperature of 80°±5° F. and the relative humidity of 50±5 per cent.
as §2

Consider `CCSC(C)=NOC(=O)N(C)Sc1ccc(C(C)(C)C)cc1` [Compound 10], for which the LC50 in assay [1] was 5 µg/mL (≈ 14.7 µM); in assay [2] it was more than 500 µg/mL; in assay [3] (Spodoptera eridania, 72 h, leaf spray bait, 3 days, read-out: Insect LD50, Armyworm), 14 µg/mL (≈ 41.1 µM); in assay [4] it was 20 µg/mL (≈ 58.7 µM); in assay [5] it was 13 µg/mL (≈ 38.2 µM). Besides, the “(b) relative efficacy of derivative vs parent compound, Armyworm” value in assay [3] (bait, formula of footnote b is drawing 8) was 1.52.
